# Values of other authors, collected in US20070077220A1, “Stable ascorbic acid compositions” (priority 2005, published 2007).
structure (smiles),measurement,value
O=C1O[C@H]([C@@H](O)CO)C(O)=C1O [L-ascorbic acid],pK (acid-ionizable hydrogen in water),4.2
